Data: patent publication US20260224542A1, “PHARMACEUTICAL COMPOSITION CONTAINING ß-LACTAMASE INHIBITOR AND USE THEREOF” (priority 2023, published 2026)
Converted amounts (≈) assume the structure as drawn.

How the values were obtained:
[1] = test system: Pseudomonas aeruginosa ACC00680; test: Neutropenic mouse thigh infection, imipenem + Compound 1 dose ratios (Example 1); assay type: in vivo; conditions: 9 h after inoculation
Description: (§1) The overnight cultures are washed twice with phosphate buffer solution (PBS) and adjusted to the optimal concentration in PBS.
(§2) For intravenous (IV) administration, the solution of Compound 1 is prepared using a Captisol vehicle, which is 25 mM acetate buffer (prepared with sodium acetate trihydrate) containing 10% w/v Captisol. The pH is adjusted to 5.0 with 2N acetic acid solution. A desired volume of buffer is added to the weighed sample, the desired concentration of Compound 1 is prepared in the buffer, which is then ultrasonically heated in a water bath until a clear solution was obtained. The administrated volume of Compound 1 is 5 mL/kg.
(§3) For subcutaneous (SC) administration, an imipenem solution or imipenem-cilastatin solution is prepared in sterile PBS by using imipenem monohydrate or imipenem monohydrate and cilastatin sodium. The desired concentration of imipenem is prepared by adding PBS to the solid powder, then sonicating the mixture in a water bath until a clear solution is obtained, and the administrated volume is 10 mL/kg.
The mice were divided into 15 groups, with 5 mice in each group. The test was carried out following the above steps, the concentration of the bacterial solution of Pseudomonas aeruginosa ACC00680 was 1.83×10^5 colony forming unit (CFU) per gram of thigh tissues, and the administration was conducted according to the scheme in the table below.
For Groups 2 to 15 above, animals were euthanized 9 hours after inoculation using an overdose of sodium pentobarbital, followed by confirmation of death by cervical dislocation.
(§4) For the […] Group 1 (control group) above, animals were euthanized with an overdose of sodium pentobarbital 1 hour after inoculation. As described above, bilateral thighs were dissected and quantitatively cultured for use as final samples.

[2] = test system: Pseudomonas aeruginosa ACC00680; test: Neutropenic mouse thigh infection, imipenem + cilastatin + Compound 1 dose ratios (Example 2); assay type: in vivo; conditions: Compound 1 total 96 mg/kg IV; 9 h after inoculation
Description: as §1, §2, §3
(§5) The mice were divided into 16 groups, with 5 mice in each group. […]
as §4

[3] = test system: Acinetobacter baumannii AR0274; test: Neutropenic mouse thigh infection, imipenem + Compound 1 dose ratios (Example 3); assay type: in vivo; conditions: Compound 1 total 96 mg/kg IV; 9 h after inoculation
Description: as §1, §2, §3, §5, §4

[4] = test system: Klebsiella pneumoniae AR0113; test: Neutropenic mouse thigh infection, imipenem + Compound 1 dose ratios (Example 4); assay type: in vivo; conditions: Compound 1 total 96 mg/kg; 9 h after inoculation
Description: as §1, §2, §3, §5, §4

[5] = Solubility of Compound 1 incubated for 24 h at 25° C. (Example 6); assay type: physicochemical
Description: The solubilization effect of sodium sulfobutylether-β-cyclodextrin (SBECD) and hydroxypropyl-β-cyclodextrin (HP-β-CD) on Compound 1 was investigated by taking the solubility in 50 mM pH 4.5 acetate buffer medium and water as a reference.
In the art, surfactants may also be used for solubilization. To further improve the solubility of Compound 1, a surfactant was added on the basis of SBECD to investigate the solubility.

SMILES: N=C1NC[C@@H](c2nnc([C@@H]3CC4(CC4)[C@@H]4CN3C(=O)N4OS(=O)(=O)O)o2)N1 [Compound 1]
- Group geometric mean (CFU/g) ([1]; Compound 1 total 50 mg/kg IV): 4.63 × 10^5 CFU/g
- Group geometric mean (CFU/g) ([1]; Compound 1 total 75 mg/kg IV): 1.93 × 10^6 CFU/g
- Group geometric mean (CFU/g) ([1]; Compound 1 total 100 mg/kg IV): 4.52 × 10^6 CFU/g
- Group geometric mean (CFU/g) [2]: 3.21 × 10^7 CFU/g
- Group geometric mean (CFU/g) [3]: 1.89 × 10^7 CFU/g
- Group geometric mean (CFU/g) [4]: 2.06 × 10^7 CFU/g
- effect of surfactant added on the basis of SBECD on solubility ([5]; SBECD 10% plus surfactant): failed to significantly improve the solubility
- solubility ([5]; water, background statement, conditions not stated): 600 µg/mL (≈ 1500 µM)
